Patent US10894043B2, “Pharmaceutical composition” (Kyowa Kirin Co., Ltd., priority 2016, dated 2021)
Where a name gives a salt, the structure may show the parent alone.

Columns and labels:
in vivo = conditions: Brown Norway, iv
Description: This intravenous dosing solution is administered to a Brown Norway rat. After a given interval from the administration, for example, 24, 72 and 168 hours after the administration, blood is collected. Then, the rat is euthanized while the eyeballs are excised. A posterior eye tissue such as the choroid and/or the sclera, the retina, or the optic nerve is harvested therefrom. A given amount of an aqueous solution containing an organic solvent (e.g., a 50 vol % methanol solution) is added to the harvested posterior eye tissue, which is then homogenized, for example, to prepare an assay sample. The drug concentration in this assay sample can be measured using a liquid chromatograph-tandem mass spectrometer (LC/MS/MS) to measure the compound concentration in the posterior eye tissue in the case of systemic administration. The elimination half-life of the compound in the posterior eye tissue can be further calculated from time-dependent change in compound concentration in the posterior eye tissue.
Each compound was dissolved in DMA. […] Each intravenous dosing solution was administered (0.5 mL/kg) to the tail vein of each Brown Norway rat. Twenty-four, 72 and 168 hours after the administration, blood was collected. Then, the animal was euthanized, and the eyeballs were excised. The eyeballs were washed, and a choroid/sclera sample was then harvested.
A given amount of a 50 vol % methanol solution was added to the harvested choroid/sclera sample, which was then homogenized. Acetonitrile was further added thereto, and the mixture was stirred. The sample was centrifuged, and the supernatant was harvested. A 0.1 vol % formic acid solution was added thereto to prepare an assay sample. The drug concentration in the assay sample was measured using a liquid chromatograph-tandem mass spectrometer (LC/MS/MS).

[1] = Test Example 1: pharmacokinetics, single ocular instillation to rat, concentration in choroid/sclera; type: in vivo, Brown Norway rat; conditions: nanoparticle composition, mean particle size 1000 nm or smaller
Description: The nanoparticle compositions of the present invention obtained in Examples 19 and 24 and the microparticle compositions obtained in Comparative Examples 3 and 4 were evaluated for their pharmacokinetics when administered at a single dose by ocular instillation (4 to 12 μL/eye, n=2 for each group) to rats. Each nanoparticle composition was administered at a single dose by ocular instillation to the right eyes of male Brown Norway rats. Four to 7 hours after the ocular instillation, each rat was euthanized, and the right eyeball was excised. The eyeball was washed, and an eyeball tissue sample (choroid/sclera) was then harvested.
(§1) The sample was centrifuged, and the supernatant was harvested. A 10 mmol/L ammonium acetate solution was added thereto to prepare an assay sample.

[2] = Test Example 3: pharmacokinetics, single ocular instillation to rat, concentration in choroid/sclera; type: in vivo, Brown Norway rat; conditions: rats, 4 hours
Description: The nanoparticle compositions of the present invention prepared in accordance with Examples 1 and 26 and the nanoparticle compositions of the present invention obtained in Examples 50, 52, 53, 54, 57 and 96 were evaluated for their pharmacokinetics when administered at a single dose by ocular instillation to rats. Each nanoparticle composition was administered at a single dose by ocular instillation to the right eyes of male Brown Norway rats (5 μL/eye, n=2 for each group). Four hours after the ocular instillation, each rat was euthanized, and the right eyeball was excised. The eyeball was washed, and a choroid/sclera sample was then harvested.
as §1

[3] = Test Example 6: pharmacokinetics, single ocular instillation to cynomolgus monkey, concentration in choroid; type: in vivo; conditions: cynomolgus monkeys
Description: The nanoparticle composition of the present invention prepared according to Example 1 and the microparticle composition prepared according to Comparative Example 1 were evaluated for their pharmacokinetics when administered at a single dose by ocular instillation to male cynomolgus monkeys. The nanoparticle composition of the present invention prepared according to Example 1 was administered by ocular instillation (50 μL/eye) to the right eye of each animal, while the microparticle composition prepared according to Comparative Example 1 was administered by ocular instillation (50 μL/eye) to the left eye thereof. Four hours or 48 hours (n=2 for each point in time) after the ocular instillation, blood was collected. […] The eyeballs were washed, and a choroid tissue was then harvested.
as §1

[4] = Test Example 5: pharmacokinetics, single ocular instillation to rabbit, compound III in choroid/retina; type: in vivo, Kbl:Dutch rabbit; conditions: rabbits, all particle sizes evaluated
Description: The nanoparticle compositions obtained in Reference Examples 11 to 13 and the microparticle composition prepared according to Comparative Example 1 were evaluated for their pharmacokinetics when administered at a single dose by ocular instillation (20 μL/eye) to Kbl:Dutch rabbits. Each of the nanoparticle compositions obtained in Reference Examples 11 to 13 and the microparticle composition prepared according to Comparative Example 1 was administered at a single dose by ocular instillation to the left eyes of the animals (n=3 for each condition). 1.5 hours after the ocular instillation, each animal was euthanized, and the eyeballs were excised. The eyeballs were washed, and a choroid/retina sample was then harvested.
as §1

[5] = Test Example 10: pharmacokinetics of compounds IV to VIII, single ocular instillation to rat, concentration in choroid/sclera; type: in vivo, Brown-Norway rat; conditions: rats, 1.5 hours
Description: 1.5 hours after the ocular instillation, blood was collected. Then, the animal was euthanized, and both the eyeballs were excised.
The sample was centrifuged, and the supernatant was harvested.

[6] = rat, 0.2 mg/kg, Half-life in choroid and sclera

| SMILES | half-life (in vivo; [6]) | also measured |
| --- | --- | --- |
| COc1cc2ncnc(Nc3cccc(Cl)c3)c2cc1OC [AG-1478, N-(3-chlorophenyl)-N-(6,7-dimethoxyquinazolin-4-yl)amine] | – | half-life (in vivo; rat, 0.05 mg/kg, Half-life in choroid and sclera): 42.8 h |
| COc1cc2nccc(Oc3ccc(NC(=O)Nc4cc(C)on4)c(Cl)c3)c2cc1OC [Compound II, N-[2-chloro-4-(6,7-dimethoxyquinolin-4-yloxy)phenyl]-N′-(5-methylisoxazol-3-yl)urea hydrochloride hydrate] | – | transfer to the choroid and/or the sclera [1]: drastically enhanced transfer to the choroid and/or the sclera; transfer to the choroid and/or the sclera [2]: high transfer to the choroid and/or the sclera; concentration in the choroid, compound II vs regorafenib [3]: much higher than that of regorafenib |
| CNC(=O)c1cc(Oc2ccc(NC(=O)Nc3ccc(Cl)c(C(F)(F)F)c3)c(F)c2)ccn1 [Compound III, 4-{4-[3-(4-chloro-3-trifluoromethylphenyl)-ureido]-3-fluorophenoxy}pyridine-2-carboxylic acid methylamide] | – | transfer to the choroid [4]: very low |
| COC(=O)c1ccc2c(c1)NC(=O)/C2=C(\Nc1ccc(N(C)C(=O)CN2CCN(C)CC2)cc1)c1ccccc1 [Compound VI, methyl (3Z)-3-[({4-[N-methyl-2-(4-methylpiperazin-1-yl)acetamido]phenyl}amino)(phenyl)methylidene]-2-oxo-2.3-dihydro-1H-indole-6-carboxylate] | 194 h | transfer to the choroid and/or the sclera, nanoparticle vs microparticle composition [5]: did not differ in transfer to the choroid and/or the sclera |
| C=CC(=O)Nc1cccc(Oc2nc(Nc3ccc(N4CCN(C)CC4)c(F)c3)nc3[nH]ccc23)c1 [avitinib] | – | half-life (in vivo; in vivo, 0.2 mg/kg, Half-life in choroid and sclera, EGFR inhibitors, intravenous single dose 0.2 mg/kg): 85.5 h |
| CNC(=O)c1ccccc1Sc1ccc2c(/C=C/c3ccccn3)n[nH]c2c1 [axitinib] | 57.4 h | – |
| COc1cc(N2CCC(N3CCN(C)CC3)CC2)ccc1Nc1ncc(Cl)c(Nc2ccccc2P(C)(C)=O)n1 [brigatinib] | – | half-life (in vivo; rat, 0.1 mg/kg): 137 h |
| COc1cc2nccc(Oc3ccc(NC(=O)C4(C(=O)Nc5ccc(F)cc5)CC4)cc3)c2cc1OC [cabozantinib] | – | half-life (in vivo; in vivo, 0.2 mg/kg, Half-life in choroid and sclera, VEGF receptor inhibitors, intravenous single dose 0.2 mg/kg): 65.8 h |
| COCCNCc1ccc(-c2cc3nccc(Oc4ccc(NC(=S)NC(=O)Cc5ccc(F)cc5)cc4F)c3s2)nc1 [glesatinib] | 132 h | – |
| C#Cc1cccc(Nc2ncnc3cc4c(cc23)OCCOCCOCCO4)c1 [icotinib] | 64.8 h | – |
| CS(=O)(=O)CCNCc1ccc(-c2ccc3ncnc(Nc4ccc(OCc5cccc(F)c5)c(Cl)c4)c3c2)o1 [lapatinib] | 246 h | – |
| Cc1cc(C(=O)Nc2nc3cccc(Cl)c3n2[C@@H]2CCCCN(C(=O)/C=C/CN(C)C)C2)ccn1 [nazartinib] | 65.4 h | – |

Continued, in another order:

| half-life (in vivo; [6]) | SMILES | also measured |
| --- | --- | --- |
| 120 h | COc1cc2ncnc(Nc3cccc(Cl)c3F)c2cc1OC(=O)N1CCN(C)C[C@H]1C [AZD-3759, 4-[(3-chloro-2-fluorophenyl)amino]-7-methoxyquinazolin-6-yl (2R)-2,4-dimethylpiperazine-1-carboxylate] | – |
| 141 h | COc1cc2c(Oc3ccc4[nH]c(C)cc4c3F)ccnc2cc1OCC1(N)CC1 [Compound IV, 1-[[4-[(4-fluoro-2-methyl-1H-indol-5-yl)oxy]-6-methoxyquinolin-7-yl]oxymethyl]cyclopropan-1-amine] | transfer to the choroid and/or the sclera, nanoparticle vs microparticle composition [5]: moderately improved transfer |
| 42.3 h | COc1cc2nccc(Oc3ccc(NC(=O)NC4CC4)c(Cl)c3)c2cc1C(N)=O [Compound V, 4-[3-chloro-4-(cyclopropylcarbamoylamino)phenoxy]-7-methoxyquinoline-6-carboxamide] | – |
| 918 h | COc1cc2ncnc(Nc3ccc(F)c(Cl)c3)c2cc1NC(=O)/C=C/CN1CCCCC1 [Compound VII, (E)-N-[4-(3-chloro-4-fluoroanilino)-7-methoxyquinazolin-6-yl]-4-piperidin-1-ylbut-2-enamide] | transfer to the choroid and/or the sclera, nanoparticle vs microparticle composition [5]: drastically improved transfer; Half-life in choroid and sclera (in vivo; rat, 0.2 mg/kg): 486 h |
| 52.9 h | C=CC(=O)Nc1ccc2ncnc(Nc3ccc(OCc4cccc(F)c4)c(Cl)c3)c2c1 [Compound VIII, N-[4-[[3-chloro-4-[(3-fluorobenzyl)oxy]phenyl]amino]quinazolin-6-yl]acrylamide] | transfer to the choroid and/or the sclera, nanoparticle vs microparticle composition [5]: drastically improved transfer; Half-life in choroid and sclera (in vivo; rat, 0.2 mg/kg): 40.1 h |
| 32.5 h | CNC(=O)c1c(C)oc2cc(Oc3ncnc4cc(OC)c(OC)cc34)ccc12 [fruquintinib] | – |
| 31.9 h | C=CC(=O)N1CCC(Oc2cc3c(Nc4ccc(Cl)c(Cl)c4F)ncnc3cc2OC)CC1 [poziotinib] | – |
| 305 h | COc1cc2c(Nc3ccc(Cl)c(Cl)c3F)ncnc2cc1OC[C@@H]1C[C@@H]2CN(C)C[C@@H]2C1 [tesevatinib] | – |
| 46.1 h | C[C@@H]1COC(Nc2ccc3ncnc(Nc4ccc(OCc5nccs5)c(Cl)c4)c3c2)=N1 [varlitinib] | – |
